From PMC12006171, “Marsupial cathelicidins: characterization, antimicrobial activity and evolution in this unique mammalian lineage” (Frontiers in Immunology, 2025)
Converted amounts (≈) assume the structure as drawn. Read-outs that look alike come from different tables or passages of the source. Where a SMILES comes first, the peptide text is derived from it. Where no end group is shown, it is not given here.

Tests used:
Experiment in all cases: microbe, parasite or virus in culture
Format in all cases: cell-based
[1] = test system: Streptococcus agalactiae Clinical isolate - animal; conditions: clinical isolate - animal; for MIC: read-out: MIC S. agalactiae
Description: (§1) Antimicrobial testing of 78 cathelicidin MPs was performed in two phases as outlined in Figure 1 . In phase I, 40 peptides (27 extant and 13 ancestral) were selected for testing based on rank (outlined above) and similarity to published marsupial cathelicidins with known antimicrobial activity ([33], [41]–[43]). These peptides were tested against nine bacteria (Staphylococcus aureus ATCC 29213 and clinical isolate, Escherichia coli ATCC 25922 and clinical isolate, Pseudomonas aeruginosa ATCC 27853 and clinical isolate, Streptococcus agalactiae ATCC 12386 and clinical isolate, Streptococcus pneumoniae ATCC 49619) and three fungi (Candida krusei ATCC 6258, Candida parapsilosis ATCC 22019, and Candida albicans clinical isolate). Details regarding these strains are available in Supplementary Table 4 . The antimicrobial activity of cathelicidins was determined as the minimum inhibitory concentration (MIC), which was the lowest concentration of cathelicidin that prevented visible bacterial or fungal growth, relative to the negative control. […] Minimum bactericidal concentration (MBC) and/or minimum fungicidal concentration (MFC) was conducted to determine microbicidal versus static action. Activity against S. aureus ATCC, E. coli ATCC, and Pseudomonas aeruginosa ATCC 27853 was examined in the presence of divalent cations to determine the impact of inhibitors.
(§2) Antimicrobial activity was determined using a broth microdilution susceptibility assay in 96 well polypropylene plates according to Clinical Laboratory Standards Institute guidelines M07-A and M26A as described previously ([33], [42], [43]). The bacterial and fungal isolates from humans and animals used in this study are outlined in Supplementary Table 4 . Only yeasts were included in the panel of fungi as they have been used in the susceptibility testing of eutherian ([3], [81]–[83]) and other marsupial cathelicidins previously ([33], [42], [43]). Cathelicidin mature peptides were solubilized in DMSO and serially diluted in duplicate from 128-0.25μg/mL in a final volume of 100µL. For bacteria, cathelicidins were diluted in Mueller Hinton Broth (MHB) with or without 10% lysed horse blood, and with (MH II B) or without (MHB) calcium and magnesium cations. For fungi, cathelicidins were diluted in Roswell Park Memorial Institute medium (RPMI)-1640 MOPS. Ampicillin or tetracycline were included as a positive control for Gram-positive and -negative bacteria respectively, while amphotericin B was used for fungi. A media-only negative control and growth control (no cathelicidin) were also included on each plate. Bacteria were sub-cultured on Muller Hinton agar (MHA) or sheep blood agar (BA), and fungi on Sabouraud dextrose agar (SAB), 20–24 hours prior to the test. Colonies were suspended in saline, the concentration adjusted to a 0.5 McFarland standard, and then diluted in media to a concentration of 1.0 x 10^6 cells/mL. Then, 100μL was added to each well of the cathelicidin dilution plate, giving a final inoculum density of 5 x 10^5 CFU/mL and cathelicidin concentration of 64-0.125μg/mL. Colony counts were performed on MHA/BA/SAB to confirm inoculum density. All plates were incubated at 35°C for 20–24 hours, depending on the strain.
(§3) Colonies were counted and compared to the colony count of the starting inoculum.

[2] = test system: Streptococcus agalactiae ATCC 12386; conditions: ATCC 12386; for MIC: read-out: MIC S. agalactiae ATCC
Description: as §1, §2, §3

[3] = test system: Streptococcus pneumoniae ATCC 49619; conditions: ATCC 49619; for MIC: read-out: MIC S. pneumoniae ATCC
Description: as §1, §2, §3

[4] = test system: Escherichia coli ATCC 25922; conditions: ATCC 25922
Summary of the method: (§4)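 MIC read visually as the lowest peptide concentration with no growth versus negative control, after 20–24 h at 35°C. Peptides were tested in duplicate 64-0.125μg/mL (final) in MHB or cation-supplemented MH II B, some with 10% lysed horse blood; inoculum 5 x 10^5 CFU/mL.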

[5] = test system: Escherichia coli clinical isolate - animal; conditions: clinical isolate - animal
Summary of the method: as §4

[6] = test system: Pseudomonas aeruginosa clinical isolate - animal; conditions: clinical isolate - animal
Summary of the method: as §4

[7] = test system: Pseudomonas aeruginosa ATCC 27853; conditions: ATCC 27853; for MIC: read-out: MIC P. aeruginosa ATCC
Summary of the method: as §4

[8] = test system: Staphylococcus aureus ATCC 29213; conditions: ATCC 29213; read-out: MIC S. aureus ATCC
Summary of the method: as §4

[9] = test system: Staphylococcus aureus clinical isolate - animal; conditions: clinical isolate - animal; read-out: MIC S. aureus
Summary of the method: as §4

[10] = read-out: MIC in the presence of cations E. coli ATCC

Compound | MBC E. coli ATCC [4] | MIC ([4]; read-out: MIC E. coli ATCC) [µM] | MIC [4, 10] [µM] | MBC E. coli [5] | MIC E. coli [5] | MIC in the presence of cations E. coli [5] | MIC ([6]; read-out: MIC P. aeruginosa) [µM] | MIC [8] [µM] | MIC [9] [µM] | MIC [1] [µM] | MIC [2] [µM] | MIC [3] [µM] | MIC [7] [µM] | MIC [5] [µM] | other results
CC[C@H](C)[C@H](NC(=O)[C@H](C)NC(=O)[C@H](CC(N)=O)NC(=O)[C@H](CCCCN)NC(=O)[C@H](CC(C)C)NC(=O)[C@@H](NC(=O)[C@H](CC(N)=O)NC(=O)[C@H](CCCCN)NC(=O)[C@@H](NC(=O)[C@H](CCCCN)NC(=O)[C@H](CC(=O)O)NC(=O)CNC(=O)[C@H](C)NC(=O)[C@H](CCCCN)NC(=O)[C@H](CCCCN)NC(=O)[C@H](CC(C)C)NC(=O)[C@H](CC(C)C)NC(=O)[C@H](CC(N)=O)NC(=O)[C@H](CCCCN)NC(=O)[C@H](Cc1ccccc1)NC(=O)[C@H](CCCCN)NC(=O)[C@H](CCC(=O)O)NC(=O)[C@H](Cc1ccccc1)NC(=O)[C@@H](NC(=O)[C@H](CCCNC(=N)N)NC(=O)[C@H](CC(C)C)NC(=O)[C@H](CCCNC(=N)N)NC(=O)[C@@H](N)CCCCN)[C@@H](C)CC)[C@@H](C)CC)[C@@H](C)O)C(=O)N[C@@H](CC(N)=O)C(=O)NCC(=O)N[C@@H](CC(C)C)C(=O)N[C@@H](CC(C)C)C(=O)N[C@@H](CO)C(=O)N1CCC[C@H]1C(=O)N[C@H](C(=O)NCC(=O)N[C@@H](CCCNC(=N)N)C(=O)O)[C@@H](C)CC [MAP7] (H-KRLRIFEKFKNLLKKAGDKIKNTLKNAINGLLSPIGR-OH) | 3.7 µM (≈ 15.7 µg/mL) | 1.8 (≈ 7.63 µg/mL) | 1.8 | 3.7 (3.7)^3.7 µM | 3.7 (3.7)^3.7 µM | 3.7 (3.7)^3.7 µM | 7.5 (≈ 31.8 µg/mL) | >15.1 | >15.1 | – | – | – | – | – | MBC S. agalactiae [1]: 15.1 µM (≈ 64 µg/mL); MIC S. agalactiae [1]: 15.1 µM (≈ 64 µg/mL); MBC S. agalactiae ATCC [2]: 15.1 µM (≈ 64 µg/mL); MIC S. agalactiae ATCC [2]: 15.1 µM (≈ 64 µg/mL); MBC S. pneumoniae ATCC [3]: 7.5 µM (≈ 31.8 µg/mL); MIC S. pneumoniae ATCC [3]: 7.5 µM (≈ 31.8 µg/mL); MBC P. aeruginosa [6]: 64 µg/mL (≈ 15.1 µM); MIC ([6]; read-out: MIC in the presence of cations P. aeruginosa): 7.5 µM; MBC P. aeruginosa ATCC [7]: 7.5 (7.5)^7.5 µM; MIC P. aeruginosa ATCC [7]: 7.5 (7.5)^7.5 µM; MIC in the presence of cations P. aeruginosa ATCC [7]: 7.5 (7.5)^7.5 µM
CC[C@H](C)[C@H](NC(=O)[C@H](CC(=O)O)NC(=O)[C@H](CCCNC(=N)N)NC(=O)[C@H](CC(C)C)NC(=O)[C@H](CCCCN)NC(=O)[C@H](CCCNC(=N)N)NC(=O)[C@H](Cc1ccc(O)cc1)NC(=O)[C@H](CCCCN)NC(=O)[C@H](CCC(=O)O)NC(=O)[C@H](CC(C)C)NC(=O)[C@H](CC(C)C)NC(=O)[C@@H](NC(=O)[C@H](CCCNC(=N)N)NC(=O)[C@H](Cc1ccc(O)cc1)NC(=O)[C@H](CCCCN)NC(=O)[C@H](CCC(N)=O)NC(=O)[C@H](Cc1ccc(O)cc1)NC(=O)[C@@H](NC(=O)[C@H](CC(C)C)NC(=O)[C@@H](N)CC(N)=O)[C@@H](C)CC)[C@@H](C)CC)C(=O)N[C@@H](Cc1ccccc1)C(=O)N[C@@H](CO)C(=O)NCC(=O)O [MAP6] (H-NLIYQKYRILLEKYRKLRDIFSG-OH) | 10.9 (10.9)^10.9 µM | – | – | 10.9 (10.9)^10.9 µM | 10.9 (10.9)^10.9 µM | 10.9 (10.9)^10.9 µM | >21.8 | >21.8 | >21.8 | >21.8 | >21.8 | >21.8 | >21.8 | – | MIC E. coli ATCC [4]: 10.9 (10.9)^10.9 µM; MIC in the presence of cations E. coli ATCC [4]: 10.9 (10.9)^10.9 µM
KVKRGLWDSVKKKVSKFRNSIRRRVTSFKIGAADIRKGYSVA [BepeCath7] | 13.2 µM | 6.6 | 6.6 | 13.2 µM | – | 6.6 µM | >13.2 | >13.2 | >13.2 | >13.2 | >13.2 | >13.2 | >13.2 | 6.6 | –
CC[C@H](C)[C@H](NC(=O)[C@H](CCCCN)NC(=O)[C@H](CC(C)C)NC(=O)CNC(=O)[C@H](CC(N)=O)NC(=O)[C@@H](NC(=O)[C@H](CCCNC(=N)N)NC(=O)[C@H](CCCNC(=N)N)NC(=O)[C@H](CCCNC(=N)N)NC(=O)[C@@H](NC(=O)[C@H](CO)NC(=O)[C@H](CC(N)=O)NC(=O)[C@H](CCCNC(=N)N)NC(=O)[C@H](CC(C)C)NC(=O)[C@H](CCCCN)NC(=O)[C@H](CCCCN)NC(=O)[C@H](C)NC(=O)[C@H](CCCCN)NC(=O)[C@H](CCC(=O)O)NC(=O)[C@H](CCCCN)NC(=O)[C@@H](NC(=O)[C@@H](NC(=O)[C@H](CC(=O)O)NC(=O)[C@H](Cc1c[nH]c2ccccc12)NC(=O)[C@H](CC(C)C)NC(=O)CNC(=O)[C@H](CCCNC(=N)N)NC(=O)[C@@H](N)CCCCN)[C@@H](C)O)C(C)C)[C@@H](C)CC)C(C)C)C(=O)NCC(=O)N[C@@H](C)C(=O)N[C@@H](C)C(=O)N[C@@H](CC(=O)O)C(=O)N[C@@H](CCC(N)=O)C(=O)N[C@H](C(=O)N1CCC[C@H]1C(=O)NCC(=O)N[C@@H](Cc1c[nH]cn1)C(=O)N[C@@H](CO)C(=O)N[C@@H](CC(C)C)C(=O)O)C(C)C [LahiCath4] (H-KRGLWDTVKEKAKKLRNSIRRRVNGLKIGAADQVPGHSL-OH) | 14.5 µM (≈ 63.8 µg/mL) | 7.2 (≈ 31.7 µg/mL) | 14.5 | 14.5 µM (≈ 63.8 µg/mL) | – | 14.5 µM | >14.5 | >14.5 | >14.5 | >14.5 | >14.5 | >14.5 | >14.5 | 3.6 (≈ 15.8 µg/mL) | –
